Laboratory results reported in ChEMBL document CHEMBL5230103, “Hydroxamic acid hybrids as the potential anticancer agents: An Overview” (Eur J Med Chem, 2020).
Each block holds one molecule with its values, some of them ahead of it.

Legend:
PC-3 [1] = test: Potency index, ratio of vorinostat IC50 to test compound IC50 for cytotoxicity against human PC-3 cells assessed as inhibition of cell growth by MTT assay; assay type: functional
NCI-H23 [2] = test: Potency index, ratio of vorinostat IC50 to test compound IC50 for cytotoxicity against human NCI-H23 cells assessed as inhibition of cell growth by MTT assay; assay type: functional
PC-3 [3] = test: Cytotoxicity against human PC-3 cells assessed as inhibition of cell growth by MTT assay; assay type: functional, cell-based
Histone deacetylase = test: Inhibition of HDAC (unknown origin); assay type: protein assay, Homo sapiens
NCI-H23 [4] = test: Cytotoxicity against human NCI-H23 cells assessed as inhibition of cell growth by MTT assay; assay type: functional, cell-based
SW-620 [5] = test: Cytotoxicity against human SW620 cells assessed as inhibition of cell growth by MTT assay; assay type: functional, cell-based
SW-620 [6] = test: Potency index, ratio of vorinostat IC50 to test compound IC50 for cytotoxicity against human SW620 cells assessed as inhibition of cell growth by MTT assay; assay type: functional
SH-SY5Y = test: Antiproliferative activity against human SH-SY5Y cells assessed as inhibition of cell growth by MTT assay; assay type: functional, cell-based
HL-60 = test: Antiproliferative activity against human HL-60 cells assessed as inhibition of cell growth by MTT assay; assay type: functional, cell-based
NCI-H929 = test: Antiproliferative activity against human NCI-H929 cells assessed as inhibition of cell growth by MTT assay; assay type: functional, cell-based
U-937 [7] = test: Antiproliferative activity against human U-937 cells assessed as inhibition of cell growth by MTT assay; assay type: functional, cell-based
U-266 = test: Antiproliferative activity against human U-266 cells assessed as inhibition of cell growth by MTT assay; assay type: functional, cell-based
MCF7 [8] = test: Antiproliferative activity against human MCF7 cells assessed as inhibition of cell growth by MTT assay; assay type: functional, cell-based
HepG2 [9] = test: Cytotoxicity against human HepG2 cells assessed as inhibition of cell growth by MTT assay; assay type: functional, cell-based
ES-2 = test: Cytotoxicity against human ES2 cells assessed as inhibition of cell growth by MTT assay; assay type: functional, cell-based
U-937 [10] = test: Cytotoxicity against human U-937 cells assessed as inhibition of cell growth by MTT assay; assay type: functional, cell-based
K562 = test: Cytotoxicity against human K562 cells assessed as inhibition of cell growth by MTT assay; assay type: functional, cell-based
PLC-PRF-5 = test: Cytotoxicity against human PLC-PRF-5 cells assessed as inhibition of cell growth by MTT assay; assay type: functional, cell-based
HCT-116 [11] = test: Cytotoxicity against human HCT-116 cells assessed as inhibition of cell growth by SRB assay; assay type: functional, cell-based
A549 = test: Cytotoxicity against human A549 cells assessed as inhibition of cell growth by SRB assay; assay type: functional
[12] = biological target: Histone deacetylase (Homo sapiens) (UniProt Q13547+O15379+Q9UBN7+Q92769+Q9UQL6+Q8WUI4+Q9BY41+Q96DB2+P56524+Q9UKV0+Q969S8); test: Potency index, ratio of vorinostat IC50 to test compound IC50 for inhibition of HDAC (unknown origin); assay type: protein assay
PC-3 [13] = test: Cytotoxicity against human PC-3 cells assessed as inhibition of cell growth by SRB assay; assay type: functional, cell-based
Hep 3B2 = test: Cytotoxicity against human Hep3B cells assessed as inhibition of cell growth by MTT assay; assay type: functional
MDA-MB-231 = test: Antitumor activity against human MDA-MB-231 cells xenografted in mouse assessed as reduction on tumor volume at 20 mg/kg, ip relative to control; assay type: functional; set-up: scale not given: the % may be the effect or the level left
MCF7 [14] = test: Cytotoxicity against human MCF7 cells assessed as inhibition of cell growth by SRB assay; assay type: functional, cell-based
HepG2 [15] = test: Cytotoxicity against human HepG2 cells assessed as inhibition of cell growth measured after 72 hrs by MTT assay; assay type: functional, cell-based; conditions: HepG2, 72 h
U2OS = test: cells; assay type: functional, cell-based; conditions: Homo sapiens, 72 h
Description: Cytotoxicity against human U2OS cells assessed as inhibition of cell growth measured after 72 hrs by MTT assay

MCF7 [16] = test: cells; assay type: functional, cell-based; conditions: Homo sapiens, MCF7, 72 h
Description: Cytotoxicity against human MCF7 cells assessed as inhibition of cell growth measured after 72 hrs by MTT assay

HCT-116 [17] = test: Cytotoxicity against human HCT-116 cells assessed as inhibition of cell growth by MTT assay; assay type: functional, cell-based
[18] = Cytotoxicity against human MCF7/Topo cells assessed as inhibition of cell growth by MTT assay; assay type: functional, cell-based
KB-V1 = test: Cytotoxicity against human vinblastine resistant KB-V1 cells assessed as inhibition of cell growth by MTT assay; assay type: functional, cell-based
PANC-1 = test: Cytotoxicity against human PANC-1 cells assessed as inhibition of cell growth by MTT assay; assay type: functional, cell-based
518A2 = test: Cytotoxicity against human 518A2 cells assessed as inhibition of cell growth by MTT assay; assay type: functional, cell-based
[19] = Cytotoxicity against chicken heart fibroblast cells; assay type: toxicity, cell-based, Gallus gallus
HT-29 = test: Cytotoxicity against human HT-29 cells assessed as inhibition of cell growth by MTT assay; assay type: functional, cell-based

IC50 (Histone deacetylase): 760 nM
Compound: Cc1nc2ccc(Cl)cc2c(=O)n1Cc1ccc(C(=O)NO)cc1
Ratio IC50 (PC-3 [1]): >3
Ratio IC50 (NCI-H23 [2]): >3
IC50 (PC-3 [3]): 620 nM
IC50 (NCI-H23 [4]): 620 nM
IC50 (SW-620 [5]): 620 nM
Ratio IC50 (SW-620 [6]): >3

Ratio IC50 [12]: 35
IC50 (Histone deacetylase): 3.3 nM
Compound: CCn1c(C)c(CCNS(=O)(=O)c2ccc(/C=C/C=C/C(=O)NO)cc2)c2ccccc21
GI50 (HCT-116 [11]): 20 nM
GI50 (A549): 20 nM
GI50 (PC-3 [13]): 20 nM
GI50 (Hep 3B2): 20 nM

IC50 (Histone deacetylase): 90 nM
Compound: COc1cc(/C=C2\N=C(c3ccccc3)N(n3c(SCC(=O)NO)nnc3-c3ccccc3)C2=O)ccc1O
GI50 (MCF7 [14]): 24900 nM

IC50 (U2OS): 1600 nM
IC50 (MCF7 [16]): 1600 nM
Compound: COc1cc(NC(C)CCCCCCNC(=O)CCC(=O)NO)c2ncccc2c1 (centres undefined)
IC50 (HepG2 [15]): 1600 nM

IC50 (U2OS): 1600 nM
IC50 (MCF7 [16]): 1600 nM
Compound: COc1cc(NC(C)CCCNC(=O)CCC(=O)NO)c2ncccc2c1 (centres undefined)
IC50 (HepG2 [15]): 1600 nM

The remaining lines, values behind:

Compound: O=C(NO)c1cn(C2CCN(C(=O)c3ccc(-c4ccccc4)cc3)CC2)nn1
IC50 (SH-SY5Y): 1200 nM
IC50 (HL-60): 1200 nM
IC50 (NCI-H929): 1200 nM
IC50 (U-937 [7]): 1200 nM
IC50 (U-266): 1200 nM
IC50 (MCF7 [8]): 1200 nM

Compound: NC(=O)N1N=C(c2ccccc2)CC1c1ccccc1OCC(=O)NO (centres undefined)
IC50 (HepG2 [9]): 18700 nM
IC50 (PC-3 [3]): 18700 nM
IC50 (ES-2): 18700 nM
IC50 (U-937 [10]): 18700 nM
IC50 (K562): 18700 nM
IC50 (PLC-PRF-5): 18700 nM

Compound: O=C(CCCCCCC(=O)Nc1ccccc1)NO [VORINOSTAT]
Activity (MDA-MB-231): 40%

Compound: O=C(CCCCCCC(=O)Nc1cccc2ccn(S(=O)(=O)c3ccccc3)c12)NO
Activity (MDA-MB-231): 68%

Compound: CCn1cnc(-c2ccc(OC)cc2)c1-c1ccc(/C=C/C(=O)NO)cc1
IC50 (HCT-116 [17]): 300 nM
IC50 [18]: 300 nM
IC50 (KB-V1): 300 nM
IC50 (PANC-1): 300 nM
IC50 (518A2): 300 nM
IC50 [19]: > 150000 nM
IC50 (HT-29): 300 nM

Compound: Cn1cnc(-c2ccc(F)cc2)c1-c1ccc(/C=C/C(=O)NO)cc1
IC50 (HCT-116 [17]): 300 nM
IC50 [18]: 300 nM
IC50 (KB-V1): 300 nM
IC50 (PANC-1): 300 nM
IC50 (518A2): 300 nM
IC50 [19]: > 150000 nM
IC50 (HT-29): 300 nM
